The record followed here is PubChem BioAssay AID624339 (Sanford-Burnham Center for Chemical Genomics, 2012).

Activity calls are given as the source filed them. The rule behind the calls is not given here.

In the first data set the test system is PAMPA artificial membrane permeability, pH 7.4. The data set can be described thus: passive permeability across artificial membrane, ADME assay, biophysical (AID 624339). The following applies: at 100 µM; active compounds read high.
For the molecule `O=C(c1ccccn1)N(Cc1cccs1)C1(C(=O)NC2CCCCC2)CCCCC1`, the permeability Pe is 1580 10-6 cm/s. Still for that read-out and setting: with `COc1ccc(C2c3c(ncn(CCN4CCOCC4)c3=N)Oc3ccc4ccccc4c32)cc1OC` (stereo not drawn) the figure was 1440 10-6 cm/s; with `COc1ccc(CNCc2cccc3ccccc23)cc1`, 1130 10-6 cm/s. With `O=c1[nH]c2c(s1)C(c1cccnc1)C1C3CCC(C3)C1S2` (stereo not drawn), the permeability Pe was 830 10-6 cm/s.

On to `Cc1cccc(-n2cnc3cc(C(=O)N4CCCCC4)ccc32)c1`, for which the permeability Pe is 748 10-6 cm/s. The same measure, in the same setting: with `CCCN1CNc2c(c(=O)[nH]c(=S)n2CCc2ccc(OC)c(OC)c2)C1` the figure was 75 10-6 cm/s; with `Cc1ccnc(NC(=O)CCCOc2cc(=O)n(C)c3ccccc23)c1`, 510 10-6 cm/s. On the same count and under the same terms, the same measure for `CCOc1ccc(NC(=S)N2CCC(C(O)(c3ccccc3)c3ccccc3)CC2)cc1`: 682 10-6 cm/s; for `CCOc1ccc(-c2nc(-c3ccncc3)no2)cc1OCC`: 1030 10-6 cm/s; for `O=c1c2ccccc2[se]n1-c1ccccc1`: 448 10-6 cm/s. The same measure, in the same setting: the same measure for `O=C(O)CCC(NS(=O)(=O)c1ccc(-c2ccccc2)cc1)C(=O)O` (stereo not drawn): < 0.4 10-6 cm/s (inactive). For the molecule `Cc1cc(-c2nnc3n2CCCCC3)c(C)n1-c1ccccc1`, the permeability Pe is 393 10-6 cm/s. The same measure, in the same setting: the same measure for `O=C(O)c1ccccc1OCc1ccccc1Br`: 22 10-6 cm/s; for `O=C1CCCC2=C1C1(CCCC1)N=C(Nc1nc3ccccc3o1)N2`: 436 10-6 cm/s. With `Cc1cc2c(s1)c1cnn(Cc3ccccc3F)c(=O)c1n2C`, the permeability Pe was 913 10-6 cm/s. With `CCCn1ncc(CN2CCCC(C(=O)c3cccc(OC(C)C)c3)C2)c1C` (stereo not drawn), the permeability Pe is 1310 10-6 cm/s. The same measure, in the same setting: the same measure for `CCCN(CCC)CCNC(=O)C1CCN(Cc2nc(-c3ccc(Cl)cc3)oc2C)CC1`: 1860 10-6 cm/s; for `CS(=O)(=O)c1ccc(C(=O)OCC(=O)NC23CC4CC(CC(C4)C2)C3)cc1[N+](=O)[O-]`: 443 10-6 cm/s.

`c1ccc(-c2nnc(N3CCOCC3)nc2-c2ccccc2)cc1`: the permeability Pe was 1490 10-6 cm/s. Same read-out and setting: with `Cc1cc(C)nc(-n2nc(C)c(Sc3ccc(F)cc3)c2N)n1` the figure was 1020 10-6 cm/s; with `O=[N+]([O-])c1ccc(CN2CCOCCOCCN(Cc3ccc([N+](=O)[O-])cc3)CCOCC2)cc1`, 1080 10-6 cm/s; with `CC(C)C(=O)NC(c1ccco1)c1ccc2cccnc2c1O` (stereo not drawn), 286 10-6 cm/s. The same measure, in the same setting: the same measure for `O=S1(=O)Nc2c(ccc3cccnc23)-c2ccccc21`: 75 10-6 cm/s; for `O=C(COC(=O)C12CC3CC(CC(C3)C1)C2)NCc1ccco1`: 195 10-6 cm/s. Same read-out and setting: the same measure for `N#Cc1ccccc1CSc1nc2ncc(Br)cc2[nH]1`: 144 10-6 cm/s; for `CCCc1cc(C(=O)N(C2CCCCC2)C2CCCCC2)no1`: 0.01 10-6 cm/s (inactive). `COc1ccc(S(=O)(=O)n2nc(OC(=O)c3ccccc3)cc2N)cc1`: the permeability Pe was 459 10-6 cm/s. Still for that read-out and setting: with `CCc1nnc(NC(=O)c2ccc(NS(=O)(=O)c3ccccc3)cc2)s1` the figure was 163 10-6 cm/s. Still for that read-out and setting: the same measure for `Cc1ccc(NC(=O)CCC(=O)N/N=C/c2ccc([N+](=O)[O-])o2)cc1C`: 37 10-6 cm/s; for `O=S(=O)(NC1CCCCC1N1CCOCC1)c1ccc(Cl)cc1` (stereo not drawn): 815 10-6 cm/s. The same measure, in the same setting: with `Cn1cnc([N+](=O)[O-])c1Sc1ncnc2nc[nH]c12` the figure was 3 10-6 cm/s (inactive); with `O=c1c(O)c(-c2cc(O)c(O)c(O)c2)oc2cc(O)cc(O)c12`, 1.7 10-6 cm/s (inactive). As for `COc1ccc(C2CC(c3ccccc3)=NN2c2ccc(S(N)(=O)=O)cc2)cc1` (stereo not drawn), the permeability Pe is 278 10-6 cm/s. Turning to `O=c1[nH]c(SCc2ccc(Cl)cc2)nc2c1CCC2`, the permeability Pe is 631 10-6 cm/s. Still for that read-out and setting: with `O=C(CSc1cccc2cccnc12)N1CCCC1` the figure was 101 10-6 cm/s; with `COc1ccc(N(C(=O)CCl)C(C(=O)NCCc2ccccc2)c2cccs2)cc1Cl` (stereo not drawn), 568 10-6 cm/s; with `Cc1ccc(S(=O)(=O)NCc2ccc(C(=O)NCCN(Cc3ccccc3)C(C)C)cc2)cc1`, 1480 10-6 cm/s. Take `O=C(O)c1cccnc1SCCc1ccccc1`: the permeability Pe is 17 10-6 cm/s. On the same count and under the same terms, the same measure for `Cc1ccc(C)c(OCCn2cc(C(=O)O)c3ccccc32)c1`: 256 10-6 cm/s; for `COc1ccccc1N(/N=C1\Sc2ccccc2C1=O)C(C)=O`: 831 10-6 cm/s; for `COc1ccc(OC)c(-c2nnc3n2N=C(c2ccc(OC)c(OC)c2)CS3)c1`: 590 10-6 cm/s.

As to `Brc1cc2c(cc1C1Nc3ccccc3C3C=CCC31)OCO2` (stereo not drawn), the permeability Pe was 37 10-6 cm/s. The same measure, in the same setting: the same measure for `C=CCn1c(SCC(=O)c2ccc(O)c(O)c2)nnc1-c1ccccc1OC`: 88 10-6 cm/s. Still for that read-out and setting: with `CCOC(=O)C(C)Oc1cccc2c(=O)n(CC(=O)Nc3ccc4c(c3)OCCO4)ccc12` (stereo not drawn) the figure was 441 10-6 cm/s.

As for `O=C(CCNS(=O)(=O)c1cccc2nsnc12)N1CCN(c2ccccn2)CC1`, the permeability Pe was 143 10-6 cm/s.

Consider `O=C1NCCCc2c1oc1ccc(O)cc21`, for which the permeability Pe was 13 10-6 cm/s. The same measure, in the same setting: with `CN(C)c1nc(N)nc(CSc2nnnn2-c2cccc3ccccc23)n1` the figure was 268 10-6 cm/s; with `c1ccc2c(Nc3nnc(-c4ccncc4)s3)cccc2c1`, 211 10-6 cm/s; with `O=c1oc2c(O)c(O)cc3c(=O)oc4c(O)c(O)cc1c4c23`, 3.1 10-6 cm/s (inactive). Still for that read-out and setting: with `COC(=O)c1ccccc1NC(=O)c1ccc(F)cc1` the figure was 629 10-6 cm/s. The same measure, in the same setting: the same measure for `Cc1ccc(NS(=O)(=O)c2ccc3c(c2)CCC(=O)N3)cc1C`: 622 10-6 cm/s; for `Cc1nc(SCc2nc3ccccc3[nH]2)c2oc3ccccc3c2n1`: 720 10-6 cm/s; for `COc1ccc(CSc2nc(C)cc(=O)[nH]2)cc1`: 165 10-6 cm/s. Regarding `Cc1ccc(N2CCN(S(=O)(=O)N3CCCCC3)CC2)c(C)c1`, the permeability Pe is 263 10-6 cm/s.

Regarding `Cn1nnnc1Sc1ncnc2scc(-c3ccccc3)c12`, the permeability Pe is 973 10-6 cm/s.

On to `COc1nc(-c2ccccc2)nnc1-c1ccccc1`, for which the permeability Pe is 1240 10-6 cm/s. In the case of `COc1cc(NC(=O)c2cc(C3CC3)on2)c(OC)cc1Cl`, the permeability Pe is 720 10-6 cm/s. Still for that read-out and setting: with `CN1CSC(=S)N(C)C1` the figure was 18 10-6 cm/s; with `N#C/C(=C\c1ccc([N+](=O)[O-])o1)c1nc2ccccc2[nH]1`, 145 10-6 cm/s. Still for that read-out and setting: with `CCc1oc2ccccc2c1C(=O)c1cc(Br)c(O)c(Br)c1` the figure was 71 10-6 cm/s; with `CC(=O)c1ccc(N2CCN(S(=O)(=O)c3ccc4c(c3)CC(=O)N4)CC2)cc1`, 194 10-6 cm/s. The same measure, in the same setting: with `CCCOc1ccc(-c2nc(OC)c3ccccc3n2)cc1` the figure was 26 10-6 cm/s; with `O=C(COc1ccccc1Br)NCCc1nc2ccccc2[nH]1`, 795 10-6 cm/s; with `NC(=O)C1CCN(c2nc(-c3ccc(Br)cc3)cs2)CC1`, 284 10-6 cm/s. As to `COc1ccc(S(=O)(=O)N2CCN(S(=O)(=O)c3ccc4c(c3)OCCO4)CC2)cc1`, the permeability Pe was 562 10-6 cm/s. Still for that read-out and setting: with `CC1CCCN(C(C(=O)Nc2ccc3c(c2)OCCO3)c2ccccc2)C1` (stereo not drawn) the figure was 2010 10-6 cm/s; with `O=C1C2CC=CCC2C(=O)N1c1n[nH]c(-c2ccccc2)n1` (stereo not drawn), 63 10-6 cm/s. Consider `CN(C)c1oc(-c2ccc(OCc3ccc(Cl)cc3)cc2)nc1C#N`, for which the permeability Pe is 208 10-6 cm/s. On the same count and under the same terms, the same measure for `CCCc1nc2c(=O)n(C)c(=O)nc-2n(C)n1`: 0 10-6 cm/s (inactive). On the same count and under the same terms, with `O=C(O)c1ccc(N2C(=O)/C(=C/c3ccc(-c4ccc([N+](=O)[O-])cc4)o3)C=C2c2ccccc2)cc1` the figure was < 0.8 10-6 cm/s (inactive); with `Cc1cc(C)n(-c2nc(NCCCO)c3c4c(sc3n2)CCCC4)n1`, 1130 10-6 cm/s; with `Cc1ccc(S(=O)(=O)n2c(N)nc3ccccc32)cc1`, 370 10-6 cm/s. Turning to `CCN1CCN(c2nc3ccccc3nc2C(C#N)C(=O)OC2CCCCC2)CC1` (stereo not drawn), the permeability Pe is 2130 10-6 cm/s. Still for that read-out and setting: the same measure for `c1ccc(CC2CCN(c3ncnc4sccc34)CC2)cc1`: 1020 10-6 cm/s. On the same count and under the same terms, the same measure for `C/C=C/Cn1c(SCCCc2ccccc2)nc2c1c(=O)[nH]c(=O)n2C`: 1340 10-6 cm/s; for `COc1ccc(OC)c(S(=O)(=O)Nc2cnc3ccccc3c2)c1`: 706 10-6 cm/s; for `CCCC(=O)Nc1cccc(NC(=O)c2ccccc2Br)c1`: 190 10-6 cm/s. Still for that read-out and setting: with `Brc1ccc2c(c1)CN1CCCC1=N2` the figure was 786 10-6 cm/s; with `Cc1ccc(-n2c(N)c(C#N)c(-c3ccccc3)c(C#N)c2=O)cc1`, 67 10-6 cm/s; with `Cc1cc(C(=O)CN2C(=O)CCC2=O)c(C)n1Cc1ccccc1`, 250 10-6 cm/s. As for `Oc1cc(O)cc(/C=C/c2ccc(O)c(O)c2)c1`, the permeability Pe was 1.2 10-6 cm/s (inactive).

The same data set, now with this note: at 100 µM; with 20% ACN; active compounds read high.
As to `COc1cccc(-c2nc(-c3ccc(NC(=O)Cc4ccccc4OC)cc3)no2)c1`, the permeability Pe was 863 10-6 cm/s. Still for that read-out and setting: with `CSc1nc(-c2ccc(C)cc2)nc(C(Cl)Cl)n1` the figure was 154 10-6 cm/s. On the same count and under the same terms, the same measure for `CN(C)C1=C(Cl)C(=O)N(c2ccc(Cl)c(Cl)c2)C1=O`: 381 10-6 cm/s; for `COc1ccc(Sc2ccc(NC(=O)c3ccccc3Cl)cc2C#N)cc1`: 487 10-6 cm/s; for `Cc1ccc(C(=O)n2c3ccccc3c3ccccc32)cc1`: 352 10-6 cm/s.

With `Cc1ccccc1N1CCN(c2ncnc3c2cnn3Cc2ccc(Cl)cc2)CC1`, the permeability Pe was 1100 10-6 cm/s. On the same count and under the same terms, with `Cc1ccc(C)c(NS(=O)(=O)c2cc(C(=O)Nc3ccccc3-c3ccccc3)ccc2Cl)c1` the figure was 253 10-6 cm/s.
